The text below walks through data of patent US6383772B1, “Enzymatic conversion in a solvent mixture containing water and flourinated, non-chlorinated solvent” (Advanced Phytonic Limited, priority 1997, dated 2002).

Data set [1] is described as follows: Effect of pH on extraction of PAA from enzymatic liquor with Phytosol D. Particulars: 20 ml enzymatic liquor extracted with 40 ml Phytosol D. The format is physicochemical. On the procedure: This example was carried out to assess the efficiency and selectivity of Phytosol D in extracting PAA from the enzymatic liquor at different pH's.
The enzymatic liquor was prepared as described in Example 1 using the enzyme resin from Example C2.
20 ml samples of the liquor were extracted with 40 ml of Phytosol D, at various pH's, using hand held apparatus as follows:
The apparatus consists of a 100 ml graduated glass tube fitted with a filter assembly and a clamping ring which in turn is fitted with a needle valve. The material or solution to be extracted is charged into the tube. The filter is then assembled with the aid of a sealing O ring followed by the clamping ring ensuring that a tight fit is achieved. Phytosol liquid gas is introduced to the glass tube from an aerosol can via the needle valve. The contents of the tube are mixed by vigorous shaking after which the tube is inverted and allowed to stand until the two layers are separated. The Phytosol is then released via the needle valve into an evaporator bottle taking care not to allow any of the aqueous layer to co-discharge.

For data set [2] the following is noted: background statement; cited from earlier work.
Data set [3] in a line: Solubility of 6-APA in Phytosol solvent. The format is physicochemical.

Some results are limits rather than exact numbers.

As to `CC1(C)S[C@@H]2[C@H](N)C(=O)N2[C@H]1C(=O)O` [6-APA, 6-Aminopenicillanic acid], the “Removed (% of total w/w)” value in data set [1] (pH 1.4) is reported as <1 % of total w/w; in data set [1] (pH 3.8), <1 % of total w/w; in data set [1] (pH 5.3), 0 % of total w/w; in data set [1] (pH 6.5), 0 % of total w/w; in data set [1] (pH 8.0), 0 % of total w/w. For the same compound, the solubility in water result in data set [2] is on record as “around 2%”. Also, the “solubility in the solvent” value in data set [3] is recorded as “negligible”.
On to `O=C(O)Cc1ccccc1` [PAA, Phenylacetic acid], for which the “Removed (% of total w/w)” value in data set [1] (pH 1.4) is >99 % of total w/w; in data set [1] (pH 3.8), >99 % of total w/w; in data set [1] (pH 5.3), 6.5 % of total w/w; in data set [1] (pH 6.5), <2 % of total w/w; in data set [1] (pH 8.0), 0 % of total w/w.
